Drawing on a melting point compilation (Tetko et al.), this text covers melting point for 139 molecules.

For this series the following is noted: a range is the spread between reports.

`O=[N+]([O-])c1c(Cl)c(Cl)c(Cl)c(Cl)c1Cl` registered a melting point of 142 to 144 °C.
The result for `O=[N+]([O-])c1ccc(F)c([N+](=O)[O-])c1` reads 25.8 to 27 °C.
With `CC(=O)Oc1ccccc1OC(C)=O` the figure was 64 to 64.5 °C.
`N#Cc1ccc(Cl)cc1` gave a melting point of 92 to 95 °C.
Molecule `C=Cc1ccc(Br)cc1` showed a melting point of 5 to 7.7 °C.
Molecule `COCOC` returned a melting point of -105 °C.
The molecule `O=C(O)c1ccccc1I` registered a melting point of 162 to 163 °C.
With `c1ccc2c(c1)CCC2` the figure was -51.4 to -51 °C.
`CCCC`: the melting point was -138 to -137 °C.
The result for `OCc1c(Cl)cccc1Cl` reads 97 to 98 °C.
The result for `ClC(Br)Br` reads -22 to -20 °C; that for `O=C=S`, -139 °C; that for `c1ccc2c(c1)CCc1ccccc1-2`, 34 to 34.5 °C.
With `O=C(O)c1cccc(O)c1O` the figure was 204 to 206 °C; with `c1ccc2c(c1)Cc1ccccc1O2`, 100 to 102 °C; with `Cc1cc(C)c(Br)cc1C`, 71 to 73 °C.
In turn, `COc1ccc(C(=O)O)c(OC)c1OC` came in with a melting point of 100 to 101 °C.
In turn, `O=C(O)Cc1c(Cl)cccc1Cl` showed a melting point of 159 to 160 °C.
Molecule `CC1(C)CCCCC1` gave a melting point of -33.3 to -33 °C.
`COP(N)(=O)SC` (centres undefined) gave a melting point of 45 to 46 °C.
In turn, `COc1ccc2[nH]ccc2c1` returned a melting point of 54 to 57 °C.
With `CCCCCCCCCCCCCC(N)=O` the figure was 104 to 106 °C; with `Cc1ccc(CC(=O)O)cc1`, 92 to 93 °C; with `CN(C=O)c1ccccc1`, 11 to 14.5 °C.
`CC(C)Cl` registered a melting point of -118 to -117 °C.
The result for `O=C(O)c1ccccc1Cl` reads 139 to 142 °C; that for `Cc1cc(O)c(C(C)C)cc1Cl`, 59 to 63 °C; that for `O=[N+]([O-])c1ccc(CO)cc1`, 94 to 96.5 °C.
The molecule `COc1ccccc1C=O` displayed a melting point of 37 to 38 °C.
With `O=C(c1ccccc1)c1ccc(Br)cc1` the figure was 81 to 82.5 °C.
The molecule `Cc1ccc2cccc(O)c2n1` registered a melting point of 72 to 73.8 °C.
For `CC1(C)C(=O)N(Cl)C(=O)N1Cl`, the melting point was 132 to 135 °C.
With `O=C(O)Cc1cccc(F)c1` the figure was 43 to 46 °C.
The result for `C[C@H](O)CN` reads 21.5 to 25 °C; that for `Brc1cc(Br)cc(Br)c1`, 122 to 124 °C.
With `OCCN(CCO)CCO` the figure was 19.5 to 20.5 °C.
`Clc1cccs1` registered a melting point of -72 to -71.9 °C.
With `CCCCCCCCCCCCCCCCCCCCCCCCCCCCC` the figure was 63.7 to 66 °C.
The result for `Oc1cc(O)c(Cl)cc1Cl` reads 113 to 115 °C.
On to `c1ccc2c(c1)Oc1ccccc1S2`, for which the melting point lay within 57 to 59.5 °C.
`CCCCCCCCC(C)O` (centres undefined) returned a melting point of -5 to -2 °C.
In turn, `Cc1cc(Br)c(C)cc1Br` showed a melting point of 73 to 74 °C.
In turn, `O=C(c1ccccc1)c1cccc(C(F)(F)F)c1` gave a melting point of 52 to 52.5 °C.
Take `COc1cc(C(=O)O)ccc1O`: the melting point lay within 212 to 214 °C.
With `N#CCc1ccccc1[N+](=O)[O-]` the figure was 82 to 84 °C; with `OCC1CCCNC1` (centres undefined), 60 to 61 °C.
The result for `CCO[Si](OCC)(OCC)OCC` reads -86 to -82.5 °C; that for `OCc1ccccc1I`, 91 to 92 °C.
`CCCCC(=O)OCC` gave a melting point of -91.2 to -91 °C.
With `CC(=O)Oc1ccc(-c2ccccc2)cc1`, the melting point was 88 to 89 °C.
On to `O=C(c1cccs1)c1cccs1`, for which the melting point was 89 to 90 °C.
The result for `CCC(c1ccccc1)c1ccccc1` reads 13.3 to 14 °C; that for `O=Cc1cccc(O)c1`, 104 to 108 °C.
With `Cc1c(N)c(=O)n(-c2ccccc2)n1C` the figure was 107 to 109 °C; with `Nc1ccc2ncsc2c1`, 87 to 88 °C; with `CCOc1ccc(N)cc1`, 2.4 to 4 °C.
`O=Cc1ccc(O)c([N+](=O)[O-])c1`: the melting point fell in the range of 141 to 142 °C.
The result for `COC(=O)c1c[nH]c2ccccc12` reads 150 to 151 °C.
For `O=C1CCCCCCCCCCCCCCO1`, the melting point lay in the range of 32 to 35 °C.
With `Nc1cccc(Oc2ccccc2)c1` the figure was 36 to 37 °C; with `O=C(c1ccccc1)c1ccc(-c2ccccc2)cc1`, 100 to 101 °C; with `C=C(C(=O)O)C(F)(F)F`, 50 to 51.5 °C.
For the molecule `O=[N+]([O-])c1ccc(C(F)(F)F)cc1`, the melting point is 39 to 40 °C.
With `S=C=Nc1cccc2ccccc12` the figure was 56 to 58 °C.
As to `Cc1ccc(-c2ccc(C)cc2)cc1`, the melting point lay in the range of 120 to 121 °C.
The result for `COc1ccc2c(c1OC)C(=O)OC2` reads 101 to 102 °C; that for `CCCCCCCCCCCCCCCCCCCCCCCC`, 51 to 54 °C; that for `O=Cc1ccc([N+](=O)[O-])cc1`, 105 to 108 °C.
The molecule `O=C(Nc1ccccc1)c1ccccc1O` yielded a melting point of 136 to 137 °C.
With `CCC(=O)C(CC(C)N(C)C)(c1ccccc1)c1ccccc1` (centres undefined) the figure was 98.8 to 102 °C; with `Cc1cc(C)c(C)c(CCl)c1C`, 69.5 to 70.5 °C; with `Fc1ccc(C(F)(F)F)cc1`, -42 to -41.7 °C.
With `CC(=O)c1cc(C)c(C)cc1C` the figure was 10 to 10.5 °C; with `CCNc1nc(NC(C)(C)C)nc(SC)n1`, 104 to 105 °C; with `N#Cc1ccc(F)cc1`, 34.8 to 36 °C.
With `Cc1c[nH]cn1` the figure was 51 to 56 °C; with `Cc1ccccc1NC(=N)Nc1ccccc1C`, 177 to 179 °C; with `CCC(C)(O)C#CC(C)(O)CC` (centres undefined), 53 to 54 °C.
Regarding `OC1CCc2ccccc21` (centres undefined), the melting point fell in the range of 52 to 54.8 °C.
In the case of `CCCC1CCCC1`, the melting point is -117 °C.
In turn, `Brc1cccnc1` gave a melting point of -27.3 to -27 °C.
As for `CN(C)CC(=O)O`, the melting point fell in the range of 181 to 186 °C.
`Cc1ccc2cccc([N+](=O)[O-])c2n1`: the melting point fell in the range of 138 to 140 °C.
The result for `OC(CCN1CCCCC1)(c1ccccc1)C1CCCCC1` (centres undefined) reads 114 to 115 °C; that for `O=C=Nc1ccc(Cl)c(Cl)c1`, 42 to 43 °C.
`O=C(O)c1c(F)cccc1F` returned a melting point of 158 to 159 °C.
For `CC(C)C(=O)O`, the melting point is -47 to -46 °C.
With `Clc1ccccc1I` the figure was 0.7 to 1 °C; with `COC(=O)c1ccccc1OC(C)=O`, 51.5 to 52 °C; with `CC(C)(C)c1ccc(C(O)CCCN2CCC(C(O)(c3ccccc3)c3ccccc3)CC2)cc1` (centres undefined), 147 to 148 °C.
The result for `N#CCc1ccc(Br)cc1` reads 47 to 48 °C; that for `CN1CCN(C)C1=O`, 8 to 8.2 °C; that for `O=C1C=CC(=O)C2C3C=CC(C3)C12` (centres undefined), 73 to 77.5 °C.
`CC(C)(C)CC(C)(C)C` gave a melting point of -67 to -66.5 °C.
As to `FC(Cl)(Cl)Cl`, the melting point was -111 to -110 °C.
Molecule `CCCCl` displayed a melting point of -123 to -122 °C.
The result for `Cc1ccc(C(N)=O)cc1` reads 159 to 163 °C.
The result for `O=C(O)CCCCCCCCC(=O)O` reads 131 to 134 °C; that for `CC(C)CNCC(C)C`, -77 to -73.5 °C.
The result for `C=C[Si]1(C)O[Si](C)(C=C)O[Si](C)(C=C)O[Si](C)(C=C)O1` (centres undefined) reads -43.5 to -43 °C; that for `COC(=O)c1ccccc1N`, 24 to 24.5 °C.
`NC1CCCC1` returned a melting point of -85.7 to -82.7 °C.
Turning to `Cc1ccccc1`, the melting point was -95 to -93 °C.
The result for `CC(C)OC(C)C` reads -86.8 to -86 °C; that for `Cc1ccc(C)cc1`, 12 to 13.2 °C.
As to `ICI`, the melting point is 5 to 6.1 °C.
The molecule `CCCCC(CC)COP(=O)(OCC(CC)CCCC)OCC(CC)CCCC` (centres undefined) returned a melting point of -74 to -70 °C.
`O=C(O)CSc1ccccc1` gave a melting point of 64 to 65 °C.
The result for `Nc1ccc(Br)cc1` reads 63 to 66.4 °C; that for `Cc1cc(Cl)ccc1O`, 47 to 51 °C.
With `CCCc1cc(O)nc(S)n1` the figure was 219 to 220 °C; with `c1ccc(CSc2ccccc2)cc1`, 41 to 43.5 °C; with `OCCOCCOCCO`, -7 to -4 °C.
The result for `O=[N+]([O-])c1cccs1` reads 44 to 46.5 °C; that for `O/N=C\c1ccccc1`, 35 to 36.5 °C; that for `Clc1cccc(Cl)n1`, 86 to 88 °C.
The molecule `Oc1c(Cl)ccc(Cl)c1Cl` registered a melting point of 56 to 58 °C.
With `COC(=O)CCl` the figure was -32.1 to -32 °C; with `CN(C)c1cccc2c(S(=O)(=O)Cl)cccc12`, 70 to 72 °C; with `CCC(C)C(=O)OC1CC(C)C=C2C=CC(C)C(CCC3CC(O)CC(=O)O3)C21` (centres undefined), 174 to 175 °C.
With `CCCCBr` the figure was -112 °C.
The result for `C=C` reads -169 °C.
With `OCc1ccccc1Br`, the melting point was 80 to 81 °C.
With `O=c1c2ccccc2oc2ccccc12` the figure was 175 to 176 °C.
For `O=[N+]([O-])c1ccc(O)c(Cl)c1`, the melting point was in the range of 106 to 110 °C.
With `Oc1cccc(Nc2ccccc2)c1` the figure was 80 to 81.5 °C; with `COC(=O)c1cccnc1`, 42 to 42.5 °C; with `O=C(c1ccccc1)c1cccs1`, 56 to 57 °C.
The result for `C1COCOC1` reads -45 to -42 °C.
With `COc1cc(C=O)cc(OC)c1O` the figure was 112 to 113 °C; with `O=C1CCCCN1`, 37 to 39.5 °C.
In the case of `CCc1c(C)cccc1C`, the melting point is -16.2 to -16 °C.
`CCCCCCCCCCCCCC(=O)OCC` had a melting point of 12 to 12.3 °C.
The result for `CC(C)Nc1ccc(Nc2ccccc2)cc1` reads 74 to 77 °C; that for `O=C(c1ccccc1)c1ccc([N+](=O)[O-])cc1`, 137 to 138 °C; that for `O=C(C=Cc1ccccc1)OCc1ccccc1`, 35 to 39 °C.
In the case of `CCCC(=O)O`, the melting point is -8 to -5 °C.
The molecule `[O-][N+](=Nc1ccccc1)c1ccccc1` returned a melting point of 35 to 36 °C.
With `COc1ccc(N)cc1Cl` the figure was 50 to 52.5 °C.

As a reminder, the melting point is the temperature of the solid-liquid transition.
